Data published in the supplement of paper PMC10627819.

Assays:
Test in all cases: fitness (endpoint OD595 vs no drug) (fraction); higher = more growth
S. aureus DSM 20231 = test system: S. aureus DSM 20231
Outline: (§1)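 With the first reading as background, OD595 was measured every 30 min for 14 h in 384-well plates kept at 37 °C and inoculated at OD595 0.01. TSB, LB Lennox or CY was the medium. Fitness is the optical density at the transition into stationary phase divided by the robust mean of no-drug control wells, with a cap of 1.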

S. aureus Newman = test system: S. aureus Newman
Outline: as §1

S. pneumoniae D39V = test system: S. pneumoniae D39V
Outline: as §1

B. subtilis 168 = test system: B. subtilis 168
Outline: as §1
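Further: OD595 on entry to stationary phase over no-drug wells; at most 1.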

O=C(N[C@H](CO)[C@H](O)c1ccc([N+](=O)[O-])cc1)C(Cl)Cl [Chloramphenicol] + CN(C)[C@@H]1C(O)=C(C(N)=O)C(=O)[C@@]2(O)C(O)=C3C(=O)c4c(O)ccc(Cl)c4[C@@](C)(O)[C@H]3C[C@@H]12 [Chlortetracycline]
S. aureus DSM 20231, partner 0.006 µg/mL, one replicate
Settings | fitness
first compound 0.75 µg/mL | 0.62
first compound 1.5 µg/mL | 0.558

fitness, S. aureus DSM 20231
Settings | first compound 0.75 µg/mL | first compound 1.5 µg/mL | first compound 3 µg/mL
partner 0.012 µg/mL | 0.476 | – | 0.0949
partner 0.024 µg/mL | 0.288 | – | 0.0799
partner 0.048 µg/mL | – | 0.127 | 0.0661

O=C(N[C@H](CO)[C@H](O)c1ccc([N+](=O)[O-])cc1)C(Cl)Cl [Chloramphenicol] + CO/N=C(\C(=O)N[C@@H]1C(=O)N2C(C(=O)O)=C(COC(C)=O)CS[C@H]12)c1csc(N)n1 [Cefotaxime]
fitness
Settings | first compound 0.75 µg/mL | first compound 1.5 µg/mL | first compound 3 µg/mL
S. aureus DSM 20231, partner 0.039 µg/mL | 0.649 | 0.629 | 0.137
S. aureus DSM 20231, partner 0.078 µg/mL | 0.672 | 0.618 | 0.191
S. aureus DSM 20231, partner 0.156 µg/mL | 0.641 | 0.599 | 0.194
S. aureus Newman, partner 0.078 µg/mL | 0.534 | 0.321 | 0.136
S. aureus Newman, partner 0.156 µg/mL | 0.406 | 0.206 | 0.0948
S. aureus Newman, partner 0.312 µg/mL | 0.198 | 0.0711 | 0.065

fitness, one replicate
Settings | first compound 0.75 µg/mL | first compound 1.5 µg/mL | first compound 3 µg/mL
S. aureus DSM 20231, partner 0.312 µg/mL | 0.607 | 0.586 | 0.227
S. aureus Newman, partner 0.625 µg/mL | 0.0565 | 0.0229 | 0.0195
S. aureus Newman, partner 1.25 µg/mL | 0.0337 | 0.0237 | 0.0515
S. aureus Newman, partner 2.5 µg/mL | 0.0674 | 0.0266 | 0.0651

O=C(N[C@H](CO)[C@H](O)c1ccc([N+](=O)[O-])cc1)C(Cl)Cl [Chloramphenicol] + CO/N=C(\C(=O)N[C@@H]1C(=O)N2C(C(=O)[O-])=C(C[N+]3(C)CCCC3)CS[C@H]12)c1csc(N)n1 [Cefepime]
fitness
Settings | partner 0.125 µg/mL | partner 0.25 µg/mL | partner 0.5 µg/mL
S. aureus DSM 20231, first compound 0.75 µg/mL | 0.749 | 0.83 | 0.811
S. aureus DSM 20231, first compound 1.5 µg/mL | 0.661 | 0.699 | 0.645
S. aureus DSM 20231, first compound 3 µg/mL | 0.19 | 0.22 | 0.233
S. aureus Newman, first compound 0.75 µg/mL | 0.756 | 0.685 | 0.611
S. aureus Newman, first compound 3 µg/mL | – | 0.275 | 0.234

O=C(N[C@H](CO)[C@H](O)c1ccc([N+](=O)[O-])cc1)C(Cl)Cl [Chloramphenicol] + CO[C@@]12[C@H](COC(N)=O)C3=C(C(=O)C(C)=C(N)C3=O)N1C[C@@H]1N[C@@H]12 [Mitomycin C]
fitness
Settings | first compound 0.75 µg/mL | first compound 1.5 µg/mL | first compound 3 µg/mL
S. aureus DSM 20231, partner 0.0156 µg/mL | 0.598 | 0.431 | 0.0667
S. aureus DSM 20231, partner 0.0312 µg/mL | 0.572 | 0.367 | 0.0823
S. aureus DSM 20231, partner 0.0625 µg/mL | 0.453 | 0.245 | 0.0494
S. aureus Newman, partner 0.0156 µg/mL | 0.577 | 0.442 | 0.259
S. aureus Newman, partner 0.0312 µg/mL | 0.537 | 0.363 | 0.144
S. aureus Newman, partner 0.0625 µg/mL | 0.399 | 0.3 | 0.0938

O=C(N[C@H](CO)[C@H](O)c1ccc([N+](=O)[O-])cc1)C(Cl)Cl [Chloramphenicol] + N[C@@H]1CONC1=O [Cycloserine D]
fitness
Settings | partner 0.375 µg/mL | partner 0.75 µg/mL | partner 1.5 µg/mL
S. aureus DSM 20231, first compound 0.75 µg/mL | 0.642 | 0.662 | 0.66
S. aureus DSM 20231, first compound 3 µg/mL | 0.0914 | 0.0972 | 0.0952
S. aureus Newman, first compound 0.75 µg/mL | 0.813 | 0.824 | 0.801
S. aureus Newman, first compound 1.5 µg/mL | 0.573 | 0.542 | 0.571
S. aureus Newman, first compound 3 µg/mL | 0.201 | 0.164 | 0.165

CCC[C@@H]1C[C@@H](C(=O)N[C@@H]([C@H]2O[C@H](SC)[C@H](O)[C@@H](O)[C@H]2O)[C@H](C)Cl)N(C)C1 [Clindamycin] + CC1=C(C(=O)O)N2C(=O)[C@@H](NC(=O)[C@H](N)c3ccccc3)[C@H]2SC1 [Cephalexin]
Settings | fitness
B. subtilis 168, first compound 0.0625 µg/mL, partner 0.125 µg/mL | 0.556
B. subtilis 168, first compound 0.0625 µg/mL, partner 0.25 µg/mL | 0.465
B. subtilis 168, first compound 0.0625 µg/mL, partner 0.5 µg/mL | 0.482
B. subtilis 168, first compound 0.125 µg/mL, partner 0.125 µg/mL | 0.376
B. subtilis 168, first compound 0.125 µg/mL, partner 0.25 µg/mL | 0.344
B. subtilis 168, first compound 0.125 µg/mL, partner 0.5 µg/mL | 0.348
B. subtilis 168, first compound 0.25 µg/mL, partner 0.125 µg/mL | 0.351
B. subtilis 168, first compound 0.25 µg/mL, partner 0.25 µg/mL | 0.335
B. subtilis 168, first compound 0.25 µg/mL, partner 0.5 µg/mL | 0.34
S. aureus Newman, first compound 0.0312 µg/mL, partner 0.5 µg/mL | 0.795
S. aureus Newman, first compound 0.0312 µg/mL, partner 1 µg/mL | 0.82
S. pneumoniae D39V, first compound 0.0125 µg/mL, partner 1 µg/mL | 0.733
S. pneumoniae D39V, first compound 0.0125 µg/mL, partner 2 µg/mL | 0.453
S. pneumoniae D39V, first compound 0.0125 µg/mL, partner 4 µg/mL | 0.0549
S. pneumoniae D39V, first compound 0.025 µg/mL, partner 1 µg/mL | 0.519
S. pneumoniae D39V, first compound 0.025 µg/mL, partner 2 µg/mL | 0.294
S. pneumoniae D39V, first compound 0.025 µg/mL, partner 4 µg/mL | 0.0703
S. pneumoniae D39V, first compound 0.05 µg/mL, partner 1 µg/mL | 0.179
S. pneumoniae D39V, first compound 0.05 µg/mL, partner 2 µg/mL | 0.114
S. pneumoniae D39V, first compound 0.05 µg/mL, partner 4 µg/mL | 0.0475

fitness, one replicate
Settings | first compound 0.0039 µg/mL | first compound 0.0078 µg/mL | first compound 0.015 µg/mL | first compound 0.0156 µg/mL | first compound 0.03 µg/mL | first compound 0.06 µg/mL
B. subtilis 168, partner 0.25 µg/mL | ≥ 1 | 0.863 | – | 0.839 | – | –
B. subtilis 168, partner 0.5 µg/mL | 0.984 | 0.844 | – | 0.868 | – | –
B. subtilis 168, partner 1 µg/mL | 0.96 | 0.886 | – | 0.883 | – | –
S. pneumoniae D39V, partner 0.125 µg/mL | – | – | 0.898 | – | 0.751 | 0.642
S. pneumoniae D39V, partner 0.25 µg/mL | – | – | 0.87 | – | 0.799 | 0.667
S. pneumoniae D39V, partner 0.5 µg/mL | – | – | 0.899 | – | 0.836 | 0.645
